In PubChem BioAssay AID248 (DTP/NCI, 2004) one finds T/C data, which are given here for six compounds.

The test system of the test is L1210 leukemia ip in BDF1 mice, survival T/C. Nature of the test: NCI In Vivo Anticancer Drug Screen. Data for tumor model L1210 Leukemia (intraperitoneal) in B6D2F1 (BDF1) mice. To be noted: higher = longer survival. In outline: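 Tumor cells were implanted, animals were treated, and survival was followed. The result divides the treated measurement by the vehicle-control measurement.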

Setting [1] is: endpoint: mean survival time, dose: 200.0 mg/kg/injection, schedule: Q04DX003 (ip), vehicle: saline with Tween-80.
Where [2] appears, read: endpoint: mean survival time, dose: 400.0 mg/kg/injection, schedule: Q01DX009 (ip), vehicle: saline with Tween-80.

SMILES strings stand for the structures. Values joined by “and” are separate entries in the source; they are usually repeats but may differ in a detail not shown here. Equal values may be shown once. Inconclusive results and toxic doses are left out.

As for `COc1cc2c[n+](C)c3c4cc5c(cc4ccc3c2cc1OC)OCO5`, the T/C runs as follows: (endpoint: mean survival time, dose: 1.0 mg/kg/injection, schedule: Q01DX009 (ip), vehicle: saline) 109 % of control and 120 % of control; (endpoint: mean survival time, dose: 10.0 mg/kg/injection, schedule: Q01DX009 (ip), vehicle: saline) 118 % of control; (endpoint: mean survival time, dose: 40.0 mg/kg/injection, schedule: Q01DX009 (ip), vehicle: saline) 121 % of control; (endpoint: mean survival time, dose: 64.0 mg/kg/injection, schedule: Q01DX009 (ip), vehicle: saline) 117 % of control and 121 % of control; (endpoint: mean survival time, dose: 80.0 mg/kg/injection, schedule: Q04DX003 (ip), vehicle: saline) 150 % of control; (endpoint: mean survival time, dose: 100.0 mg/kg/injection, schedule: Q04DX002 (ip), vehicle: Klucel (hydroxypropylcellulose) (HPC)) 111 % of control. Further, the T/C was 111 % of control (endpoint: mean survival time, dose: 200.0 mg/kg/injection, schedule: Q04DX002 (ip), vehicle: Klucel (hydroxypropylcellulose) (HPC)); 107 % of control (endpoint: mean survival time, dose: 400.0 mg/kg/injection, schedule: Q04DX002 (ip), vehicle: Klucel (hydroxypropylcellulose) (HPC)); 114 % of control (endpoint: median survival time, dose: 1.0 mg/kg/injection, schedule: Q03HX024 (ip), vehicle: saline); 124 % of control (endpoint: median survival time, dose: 2.0 mg/kg/injection, schedule: Q03HX016 (ip), vehicle: saline); 121 % of control (endpoint: median survival time, dose: 4.0 mg/kg/injection, schedule: Q03HX008 (ip), vehicle: saline); 119 % of control (endpoint: median survival time, dose: 4.0 mg/kg/injection, schedule: Q03HX016 (ip), vehicle: saline). The T/C reads like this: (endpoint: median survival time, dose: 8.0 mg/kg/injection, schedule: Q04DX003 (ip), vehicle: saline) 103 % of control; (endpoint: median survival time, dose: 8.0 mg/kg/injection, schedule: Q08DX002 (ip), vehicle: saline) 105 % of control; (endpoint: median survival time, dose: 16.0 mg/kg/injection, schedule: Q01DX009 (oral), vehicle: saline) 105 % of control; (endpoint: median survival time, dose: 16.0 mg/kg/injection, schedule: Q03HX008 (ip), vehicle: saline) 121 % of control; (endpoint: median survival time, dose: 16.0 mg/kg/injection, schedule: Q04DX003 (ip), vehicle: saline) 101 % of control; (endpoint: median survival time, dose: 16.0 mg/kg/injection, schedule: Q08DX002 (ip), vehicle: saline) 103 % of control. For the same compound, the T/C reads like this: (endpoint: median survival time, dose: 32.0 mg/kg/injection, schedule: Q01DX001 (ip), vehicle: saline) 121 % of control; (endpoint: median survival time, dose: 32.0 mg/kg/injection, schedule: Q01DX009 (oral), vehicle: saline) 109 % of control; (endpoint: median survival time, dose: 32.0 mg/kg/injection, schedule: Q04DX003 (ip), vehicle: saline) 101 % of control; (endpoint: median survival time, dose: 64.0 mg/kg/injection, schedule: Q01DX001 (ip), vehicle: saline) 112 % of control; (endpoint: median survival time, dose: 64.0 mg/kg/injection, schedule: Q01DX009 (ip), vehicle: saline) 112 % of control; (endpoint: median survival time, dose: 64.0 mg/kg/injection, schedule: Q01DX009 (oral), vehicle: saline) 103 % of control. For the same compound, the T/C is 101 % of control (endpoint: median survival time, dose: 64.0 mg/kg/injection, schedule: Q04DX003 (ip), vehicle: saline); 121 % of control (endpoint: median survival time, dose: 128.0 mg/kg/injection, schedule: Q01DX001 (ip), vehicle: saline); 102 % of control (endpoint: median survival time, dose: 128.0 mg/kg/injection, schedule: Q01DX009 (oral), vehicle: saline); 87 % of control (endpoint: median survival time, dose: 128.0 mg/kg/injection, schedule: Q04DX003 (ip), vehicle: saline); 101 % of control (endpoint: median survival time, dose: 128.0 mg/kg/injection, schedule: Q08DX002 (ip), vehicle: saline); 100 % of control (endpoint: median survival time, dose: 256.0 mg/kg/injection, schedule: Q01DX009 (oral), vehicle: saline). For the same compound, for the setting “endpoint: median survival time, dose: 512.0 mg/kg/injection, schedule: Q01DX009 (oral), vehicle: saline”, the T/C was 105 % of control.

For the compound `CCCC(=O)Oc1ccc2c(C)cc(=O)oc2c1`, the T/C is 102 % of control (endpoint: mean survival time, dose: 100.0 mg/kg/injection, schedule: Q01DX009 (ip), vehicle: saline with Tween-80); 94 % of control (endpoint: mean survival time, dose: 100.0 mg/kg/injection, schedule: Q04DX003 (ip), vehicle: saline with Tween-80); 104 % of control (endpoint: mean survival time, dose: 200.0 mg/kg/injection, schedule: Q01DX009 (ip), vehicle: saline with Tween-80); 100 % of control under setting [1]; 106 % of control under setting [2]; 100 % of control (endpoint: mean survival time, dose: 400.0 mg/kg/injection, schedule: Q04DX003 (ip), vehicle: saline with Tween-80).

With `O=c1[nH]cc(F)c(=O)n1C1OC(CO)C(O)C1O` (configuration not stated), the T/C (endpoint: mean survival time, dose: 0.78 mg/kg/injection, schedule: Q01DX009 (ip), vehicle: saline) was 124 % of control; the T/C (endpoint: mean survival time, dose: 1.5 mg/kg/injection, schedule: Q01DX009 (ip), vehicle: saline) is 159 % of control; the T/C (endpoint: mean survival time, dose: 1.56 mg/kg/injection, schedule: Q01DX009 (ip), vehicle: saline) was 152 % of control; the T/C (endpoint: mean survival time, dose: 3.12 mg/kg/injection, schedule: Q01DX005 (ip), vehicle: saline) was 167 % of control; the T/C (endpoint: mean survival time, dose: 3.12 mg/kg/injection, schedule: Q01DX009 (ip), vehicle: saline) is 173 % of control; the T/C (endpoint: mean survival time, dose: 6.0 mg/kg/injection, schedule: Q01DX009 (ip), vehicle: saline) was 97 % of control. Also, the T/C (endpoint: mean survival time, dose: 6.25 mg/kg/injection, schedule: Q01DX005 (ip), vehicle: saline) was 171 % of control; the T/C (endpoint: mean survival time, dose: 6.25 mg/kg/injection, schedule: Q01DX009 (ip), vehicle: saline) is 204 % of control; the T/C (endpoint: mean survival time, dose: 12.5 mg/kg/injection, schedule: Q01DX009 (ip), vehicle: saline) was 231 % of control; the T/C (endpoint: mean survival time, dose: 18.8 mg/kg/injection, schedule: Q04DX003 (ip), vehicle: saline) was 107 % of control; the T/C (endpoint: mean survival time, dose: 25.0 mg/kg/injection, schedule: Q01DX009 (ip), vehicle: saline) was 118 % of control; the T/C (endpoint: mean survival time, dose: 25.0 mg/kg/injection, schedule: Q04DX003 (ip), vehicle: saline) is 105 % of control. For the same compound, the T/C runs as follows: (endpoint: mean survival time, dose: 37.5 mg/kg/injection, schedule: Q04DX003 (ip), vehicle: saline) 110 % of control; (endpoint: mean survival time, dose: 50.0 mg/kg/injection, schedule: Q04DX003 (ip), vehicle: saline) 110 % of control; (endpoint: mean survival time, dose: 178.0 mg/kg/injection, schedule: Q01DX009 (ip), vehicle: saline) 165 % of control; (endpoint: mean survival time, dose: 267.0 mg/kg/injection, schedule: Q01DX009 (ip), vehicle: saline) 163 % of control; (endpoint: mean survival time, dose: 400.0 mg/kg/injection, schedule: Q01DX009 (ip), vehicle: saline) 150 % of control; (endpoint: mean survival time, dose: 600.0 mg/kg/injection, schedule: Q01DX009 (ip), vehicle: saline) 171 % of control.

Take `Cc1c(Cl)cccc1NC(=O)Nc1cccc2c(O)cccc12`: the T/C (endpoint: mean survival time, dose: 50.0 mg/kg/injection, schedule: Q01DX009 (ip), vehicle: saline with Tween-80) was 92 % of control; the T/C (endpoint: mean survival time, dose: 100.0 mg/kg/injection, schedule: Q01DX001 (ip), vehicle: saline with Tween-80) was 89 % of control; the T/C (endpoint: mean survival time, dose: 100.0 mg/kg/injection, schedule: Q04DX002 (ip), vehicle: saline with Tween-80) is 86 % of control and 89 % of control; the T/C (endpoint: mean survival time, dose: 200.0 mg/kg/injection, schedule: Q01DX001 (ip), vehicle: saline with Tween-80) was 90 % of control; the T/C (endpoint: mean survival time, dose: 200.0 mg/kg/injection, schedule: Q04DX002 (ip), vehicle: saline with Tween-80) was 86 % of control and 91 % of control; the T/C under setting [1] was 88 % of control. Moreover, the T/C is, setting by setting: (endpoint: mean survival time, dose: 400.0 mg/kg/injection, schedule: Q01DX001 (ip), vehicle: saline with Tween-80) 89 % of control; under setting [2], 94 % of control and 87 % of control; (endpoint: mean survival time, dose: 400.0 mg/kg/injection, schedule: Q04DX002 (ip), vehicle: saline with Tween-80) 87 % of control and 89 % of control.

Regarding `COc1ccccc1-n1c(O)c(N=Nc2ccc(Cl)cc2)c(=O)n(-c2ccc(Cl)cc2)c1=S`, the T/C was 94 % of control (endpoint: mean survival time, dose: 75.0 mg/kg/injection, schedule: Q04DX003 (ip), vehicle: Klucel (hydroxypropylcellulose) (HPC)); 94 % of control (endpoint: mean survival time, dose: 100.0 mg/kg/injection, schedule: Q01DX001 (ip), vehicle: Klucel (hydroxypropylcellulose) (HPC)); 103 % of control (endpoint: mean survival time, dose: 150.0 mg/kg/injection, schedule: Q04DX003 (ip), vehicle: Klucel (hydroxypropylcellulose) (HPC)); 100 % of control (endpoint: mean survival time, dose: 200.0 mg/kg/injection, schedule: Q01DX001 (ip), vehicle: Klucel (hydroxypropylcellulose) (HPC)); 90 % of control (endpoint: mean survival time, dose: 300.0 mg/kg/injection, schedule: Q04DX003 (ip), vehicle: Klucel (hydroxypropylcellulose) (HPC)).

As to `C/C(CCC(=O)OC(C)(C)C)=N\N(C)C`, the T/C by setting is: (endpoint: mean survival time, dose: 100.0 mg/kg/injection, schedule: Q04DX003 (ip), vehicle: saline) 93 % of control; (endpoint: mean survival time, dose: 200.0 mg/kg/injection, schedule: Q04DX003 (ip), vehicle: saline) 91 % of control; (endpoint: mean survival time, dose: 400.0 mg/kg/injection, schedule: Q04DX003 (ip), vehicle: saline) 111 % of control.
